We go through one molecule from patent US20210379046A1, “Methods of Treating Diseases Using Kinase Modulators” (Memorial Sloan Kettering Cancer Center, priority 2018, published 2021).

“Also recorded” adds a separate entry of the source.

For one assay, the system named is TPC1 cells. Briefly: ADCC chromium-51 release assay with ESK1 and human PBMCs on inhibitor-pretreated TPC1 cells. The class given is cell-based. As for the experimental part: Peripheral blood mononuclear cells were derived from healthy donors by Ficoll density centrifugation after receiving informed consent on Memorial Sloan Kettering Institutional Review board-approved protocols. TPC1 cells treated with RET inhibitor drugs and DMSO control were labeled with chromium-51 and co-cultured with PBMCs and ESK (or its isotype control, hIgG1). Different E:T ratios were used and after 5 hrs of incubation at 37° C., the supernatant was harvested and chromium levels were measured by Chromium-51 release assay (Perkin Elmer). Higher chromium levels indicated higher levels of cytotoxicity.
After the addition of ESK and peripheral blood mononuclear cells for 5 hrs, chromium release was measured.
For each experiment reported, fresh peripheral blood mononuclear cells were derived from a healthy donor by Ficoll density centrifugation after receiving informed consent on Memorial Sloan Kettering Institutional Review Board-approved protocols. […] Cells were then labeled with 1 uCi/well chromium-51 for 1 hr at 37° C. […] Different effector:target ratios were used and after 5 hrs of incubation at 37° C., the supernatant was harvested and chromium levels were measured through standard chromium-51 release assay on a Top Count machine (Perkin Elmer).

In another assay the test system is pERK in TPC1 cells. The assay is described as follows: Western blot of pERK in TPC1 cells. The class given is cell-based, human. The settings on record: TPC1, 24 hrs. The method, then:
Cells were seeded in a 60 mm dish or 6 well plates. After the appropriate time point, cells were harvested and lysed and protein was quantified by a Lowry assay (Bio-Rad DC Protein Assay; #5000116). Protein levels were normalized and run on SDS PAGE gels (Bio-Rad). Protein was transferred to a nitrocellulose membrane using semi-dry transfer. Membrane was blocked and incubated with respective antibodies. When needed, secondary antibodies with HRP were incubated for 1 hr. Enhanced chemiluminescent substrate for HRP enzymes was used to image protein levels (Thermo-Fischer; #34095).
Cells were seeded in a 60 mm dish or 6 well plates. After the appropriate time point, cells were harvested, lysed in RIPA buffer (Thermo Instruments) and protein concentration was quantified by a Lowry assay (using the Bio-Rad DC Protein Assay; #5000116 on a Spectramax device from Molecular Devices). Protein loading levels were equalized per lane and separated on SDS gels (Bio-Rad). Protein was transferred to a nitrocellulose membrance using semi-dry transfer (BioRad). Membranes were blocked with Omniblock (American Bio) and incubated with respected antibodies. When needed, secondary antibodies with HRP were incubated for 1 hr. Enhanced chemiluminescent substrate for HRP enzymes was used to image protein levels (Thermo-Fischer; #34095) on a ChemiDoc MP imager with Soft Max Pro software (Biorad).

For a further assay, the system named is TT cells. The assay is described as follows: Flow cytometry of cell surface HLA on TT cells. Type of assay: cell-based, human. The following applies: 72 hrs. The method, then: If adherent cells, they were seeded one day before treatment.

Take `CCN1CCN(Cc2ccc(NC(=O)Nc3ccc(Oc4cc(NC)ncn4)cc3)cc2C(F)(F)F)CC1` [AST487]: the “ADCC activity of ESK1 against pretreated TPC1 cells” value with TPC1 cells (TPC1 pre-incubated with RET inhibitor) is “improved antibody-dependent cellular cytotoxicity (ADCC) activity; also recorded: increased in vitro ADCC cytotoxicity”. For the same molecule, the specific lysis in the assay with TPC1 cells (TPC1 pretreated 72 hrs with 10 nM AST487, ESK and PBMCs 5 hrs, 50:1 E:T) is recorded as 20%. In the assay on pERK in TPC1 cells, the pERK levels result is “Inhibition of pERK was seen even at concentrations as low as 10 nM; also recorded: Phospho-ERK levels decreased”. In the assay on TT cells, the “surface HLA” value is on record as “increased in a AST487 dose-related manner; also recorded: increases in surface HLA”.
